Data as given in US10945980B2, “Treatment for myopia” (The University of Newcastle, priority 2016, dated 2021).

System: lens-induced myopia in guinea pigs
Assay: L-arginine eye drops in −6D lens-induced myopia
Assay type: in vivo, guinea pig (Cavia porcellus)
From the text: Guinea pigs (pigmented variety, Cavia porcellus) were bred, housed, and raised as described in Example 1. Lights were on a 12 hr light 12 hr dark cycle. The University of Newcastle Animal Care and ethics Committee approved all procedures.
Two experimental protocols were employed (see Table 4). In Experiment 1, young guinea pigs wore a −6D lens on one eye from 5-12 days of age. They were randomly divided within each litter into two groups of 10 animals each, and received either a drop of L-Arginine (100 mM, 1.7%) in Saline (pH 7.4) or Saline alone (0.9%, pH 7.4) twice per day in the eye wearing the lens (Table 4). Drops were administered at the beginning of their light cycle and again approximately 6 hrs later in the middle of their day cycle. Lenses were removed during the drop administration which occurred under dim red light or in darkness. A single large drop was bathed on the cornea for 3 min in the lens-wearing eye in hand held animals. A clean lens was then reintroduced onto the eye. In Experiment 2, 14 guinea pigs were given eye drops in the same manner as in Experiment 1, but in both eyes and without any lens-wear, to determine the effect of the eye drops on normal eye growth. Animals received one drop of either 1.7% L-arginine (n=7) or atropine (Minims Atropine Sulphate 1%, Bausch & Lomb, preservative free, n=7) in one eye and saline (0.9%) in the other eye twice per day from 9-16 days of age.
In Experiment 1, at the end of the lens-wearing period, at 12 days of age just before the morning lights came on, both eyes were cyclopleged (1% Cyclopentolate—to paralyse the focussing muscles of the eye to a resting state) and 1.25 hours later, refractive error (RE) was measured. Animals were then anaesthetised with gaseous anaesthetic (1.5% isoflurane in oxygen) and eye length measures were taken in both eyes with high frequency ultrasound as described in Example 1. Biometry measures were also taken in the same manner before the lens wear period at 5 days of age. [No refractive measures were done at 5 days of age as cycloplegia could have interfered with the drug or lens response]. In Experiment 2, refractive error and eye length using ultrasound were measured in the same manner at 17 days of age, 24 hours after the previous drop was administered.
In Experiment 1, lens-induced myopia was achieved by attaching −6D concave lenses to matching Velcro arcs glued above and below the experimental eye as previously described (Howlett & McFadden, 2009). Lenses were exchanged with a clean lens after drop administration.
After cycloplegia was induced, refractive error was measured in each eye using an Autorefractor (Nidek AR-20, Japan). The spherical equivalent was calculated as the average of the sphere plus half the cylinder as is normal in clinical practice. All reported refractive errors are the spherical equivalent. Next, ocular length was measured using high frequency ultrasound (20 MHz) as previously described (McFadden et al, 2004). At least 20 traces were recorded for each eye and distances were averaged for at least 10 of these recordings. Peaks from the recordings were selected for the back of the cornea, the crystalline lens, and the vitreous chamber, and the layers at the back of the eye: the retina, choroid, and sclera. Ocular length was defined as the summed measurement from the front of the cornea to the back of the sclera.
Differences between the two eyes were analysed by a 2-tailed T-tests. The mean of calculated differences between the two eyes is referred to as relative myopia or relative ocular length and the difference in the change in ocular length in the treated compared to the untreated eye as relative growth.

N=C(N)NCCC[C@H](N)C(=O)O [L-arginine]
animals that did not develop myopia in the lens-wearing eye (1.7% (100 mM) LA eye drops twice daily, −6D lens): 7/10
relative eye growth (mean growth in ocular length) across all animals (1.7% LA eye drops twice daily, between 5 and 12 days of age, −6D lens, p=0.01 vs saline): 42±17 μm
relative growth in the 70% of animals which failed to develop myopia (1.7% LA eye drops twice daily, between 5 and 12 days of age, p=0.44): 10±12 μm
animals protected from developing myopia (1.7% LA eye drops twice daily, −6D lens): 70%
relative myopia in the 7 animals that did not develop myopia (1.7% LA eye drops twice daily, −6D lens, p=0.000 vs saline): −2.5±0.7 D
relative myopia, mean across all 10 animals (1.7% LA eye drops twice daily, −6D lens, p=0.007 vs saline): −3.6±0.8 D
mean myopia as percent of that in control animals (1.7% LA eye drops, the 70% of animals protected): 37%
mean refractive error in untreated eyes (untreated fellow eyes of LA group at 12 days of age, 1.7% LA eye drops twice daily in the other eye): +5.2±0.5 D
